These compounds were tested against T1, human BRD4 bromodomain II (Homo sapiens, UniProt O60885) (assay: Bromodomain binding assay (AlphaScreen), BRD4 BDII). Settings: AlphaScreen assay, Table C2; read-out: BRD4 BDII IC50.
T1 construct: human BRD4 bromodomain II [based on Genbank NM_058243, residues 349-460]; host or cells: E. coli
Experimental: Bromodomain Binding Assay
The bromodomain binding assay utilizes AlphaScreen technology. Compounds compete with a biotinylated peptide ligand (from histone H4: aa 1-21, K5/K8/K12/K16Ac-biotin) for binding to a hexahistidine (His6)-tagged bromodomain. Peptide binding is detected by fluorescence signal after singlet oxygen energy transfer from peptide-bound AlphaScreen streptavidin-coated donor beads to His6-tagged bromodomain-bound nickel-chelate acceptor beads (PerkinElmer). Briefly, 8 μL 2.5× bromodomain (E. coli expressed, N-terminal His6-tagged human BRD4 bromodomain II [based on Genbank NM_058243, residues 349-460] or N-terminal His6-tagged human BRD4 bromodomain I [residues 44-170]) in reaction buffer (50 mM HEPES [pH 7.5], 100 mM NaCl, 0.05% CHAPS, 0.1% BSA, 1% DMSO) is added to wells of an assay plate (384-well low flange white, flat bottom, polystyrene microplate, Corning #3572; buffer only is added to some wells as a negative control). A compound concentration series (10 concentrations, 3-fold serial dilutions previously prepared in 100% DMSO, or 100% DMSO only negative control) is delivered to the assay plate with an Echo 550 acoustic liquid handler (Labcyte), followed by plate centrifugation and incubation for 30 minutes at room temperature. Then 4 μL 5× biotinylated peptide ligand is added, followed by plate centrifugation and gentle shaking for 30 minutes at room temperature to mix. After this incubation, 4 μL 5× donor beads are added, and the plate is centrifuged, followed by brief gentle shaking to mix. Finally, 4 μL 5× acceptor beads are added, and the plate is centrifuged, followed by gentle shaking for 60 minutes at room temperature in the dark. AlphaScreen signal (excitation/emission: 680 nm/520-620 nm) is detected with an EnSpire multimode plate reader (PerkinElmer). Percentage peptide binding is plotted as a function of concentration, and curve fitting is used to determine competitive compound binding ICsos.

SMILES	IC50
CCOC(=O)c1cccc(-c2cccc(-c3ccc(NC(C)=O)c(F)c3)c2O)c1 [Example 70, Ethyl 4″-acetamido-3″-fluoro-2′-hydroxy-[1,1′:3′,1″-terphenyl]-3-carboxylate]	> 100 nM
COC(=O)Nc1ccc(-c2cccc(-c3cc(N4CCNCC4)no3)c2O)cc1 [Example 141, Methyl (2′-hydroxy-3′-(3-(piperazin-1-yl)isoxazol-5-yl)-[1,1′-biphenyl]-4-yl)carbamate 2,2,2-trifluoroacetate]	> 100 nM
COc1cc(F)cc(-c2cccc(-c3ccc(NC(C)=O)c(F)c3)c2O)c1 [Example 146, N-(3,3″-difluoro-2′-hydroxy-5″-methoxy-[1,1′:3′,1″-terphenyl]-4-yl)acetamide]	> 100 nM
CC(=O)Nc1ccc(-c2cccc(-c3cccc(OC(C)C)c3)c2O)cc1F [Example 107, N-(3-Fluoro-2′-hydroxy-3″-isopropoxy-[1,1′:3′,1″-terphenyl]-4-yl)acetamide]	> 100 nM
CC(=O)Nc1c(F)cc(-c2cccc(-c3cc(N4CCNCC4)no3)c2O)cc1Cl [Example 126, N-(3-Chloro-5-fluoro-2′-hydroxy-3′-(3-(piperazin-1-yl)isoxazol-5-yl)-[1,1′-biphenyl]-4-yl)acetamide 2,2,2-trifluoroacetate]	10 to 100 nM
CC(=O)Nc1ccc(-c2cccc(-c3cnc4[nH]ccc4c3)c2O)cc1F [Example 124, N-(3-fluoro-2′-hydroxy-3′-(1H-pyrrolo[2,3-b]pyridin-5-yl)-[1,1′-biphenyl]-4-yl)acetamide]	> 100 nM
CC(=O)Nc1ccc(-c2cccc(-c3ccc(C(F)(F)F)cc3)c2O)cc1F [Example 83, N-(3-Fluoro-2′-hydroxy-4″-(trifluoromethyl)-[1,1′:3′,1″-terphenyl]-4-yl)acetamide]	> 100 nM
CC(=O)Nc1ccc(-c2cccc(-c3ccc4cnccc4c3)c2O)cc1F [Example 145, N-(3-fluoro-2′-hydroxy-3′-(isoquinolin-6-yl)-[1,1′-biphenyl]-4-yl)acetamide]	10 to 100 nM
CC(=O)Nc1ccc(-c2cccc(-c3cc(N4CCNCC4)no3)c2O)cc1C(C)C [Example 27, N-(2′-Hydroxy-3-isopropyl-3′-(3-(piperazin-1-yl)isoxazol-5-yl)-[1,1′-biphenyl]-4-yl)acetamide 2,2,2-trifluoroacetate]	> 100 nM
CC(=O)Nc1ccc(-c2cccc(-c3cnn(-c4ccc(F)cc4)c3)c2O)cc1 [Example 16, N-(3′-(1-(4-Fluorophenyl)-1H-pyrazol-4-yl)-2′-hydroxy-[1,1′-biphenyl]-4-yl)acetamide]	> 100 nM
CC(=O)N1CCC(=O)N(C)c2cc(-c3cccc(-c4cc(N5CCNCC5)no4)c3O)ccc21 [Example 38, 5-Acetyl-8-(2-hydroxy-3-(3-(piperazin-1-yl)isoxazol-5-yl)phenyl)-1-methyl-1,3,4,5-tetrahydro-2H-benzo[b][1,4]diazepin-2-one]	> 100 nM
CC(=O)Nc1ccc(-c2cccc(-c3ccc4ncncc4c3)c2O)cc1F [Example 142, N-(3-fluoro-2′-hydroxy-3′-(quinazolin-6-yl)-[1,1′-biphenyl]-4-yl)acetamide]	10 to 100 nM
COc1ccc(-c2cccc(-c3ccc(NC(C)=O)c(F)c3)c2O)cc1 [Example 61, N-(3-Fluoro-2′-hydroxy-4″-methoxy-[1,1′:3′,1″-terphenyl]-4-yl)acetamide]	> 100 nM
CC(=O)Nc1ccc(-c2cccc(-c3cccc(F)c3)c2O)cc1F [Example 54, N-(3,3″-Difluoro-2′-hydroxy-[1,1′:3′,1″-terphenyl]-4-yl)acetamide]	> 100 nM
CC(=O)Nc1ccc(-c2cccc(-c3cc(N4CCN(S(=O)(=O)c5ccccc5)CC4)no3)c2O)cc1 [Example 58, N-(2′-Hydroxy-3′-(3-(4-(phenylsulfonyl)piperazin-1-yl)isoxazol-5-yl)-[1,1′-biphenyl]-4-yl)acetamide]	> 100 nM
CC(=O)Nc1ccc(-c2cccc(-c3cccc(N4CCC(N)CC4)c3)c2O)cc1F [Example 159, N-(3″-(4-aminopiperidin-1-yl)-3-fluoro-2′-hydroxy-[1,1′:3′,1″-terphenyl]-4-yl)acetamide 2,2,2-trifluoroacetate]	10 to 100 nM
O=C1CCCN1c1ccc(-c2cccc(-c3cc(N4CCNCC4)no3)c2O)cc1F [Example 113, 1-(3-Fluoro-2′-hydroxy-3′-(3-(piperazin-1-yl)isoxazol-5-yl)-[1,1′-biphenyl]-4-yl)pyrrolidin-2-one]	10 to 100 nM

SMILES	IC50
CC(=O)Nc1ccc(-c2cccc(-c3cccc(C(F)(F)F)c3)c2O)cc1F [Example 78, N-(3-Fluoro-2′-hydroxy-3″-(trifluoromethyl)-[1,1′:3′,1″-terphenyl]-4-yl)acetamide]	> 100 nM
CC(=O)Nc1ccc(-c2cccc(-c3ccc(OC(C)C)cc3)c2O)cc1F [Example 106, N-(3-Fluoro-2′-hydroxy-4″-isopropoxy-[1,1′:3′,1″-terphenyl]-4-yl)acetamide]	> 100 nM
CC(=O)Nc1ccc(-c2cccc(-c3ccc4occc4c3)c2O)cc1F [Example 119, N-(3′-(Benzofuran-5-yl)-3-fluoro-2′-hydroxy-[1,1′-biphenyl]-4-yl)acetamide]	> 100 nM
CC(=O)Nc1ccc(-c2cccc(-c3cc(N4CCNCC4)ccc3F)c2O)cc1F [Example 187, N-(2″,3-difluoro-2′-hydroxy-5″-(piperazin-1-yl)-[1,1′:3′,1″-terphenyl]-4-yl)acetamide]	10 to 100 nM
CC(=O)Nc1ccc(-c2cccc(-c3cc4ccccc4[nH]3)c2O)cc1F [Example 156, N-(3-fluoro-2′-hydroxy-3′-(1H-indol-2-yl)-[1,1′-biphenyl]-4-yl)acetamide]	> 100 nM
CCC(=O)Nc1ccc(-c2cccc(-c3cc(N4CCNCC4)no3)c2O)cc1 [Example 116, N-(2′-Hydroxy-3′-(3-(piperazin-1-yl)isoxazol-5-yl)-[1,1′-biphenyl]-4-yl)propionamide 2,2,2-trifluoroacetate]	> 100 nM
CC(=O)Nc1ccc(-c2cccc(-c3ccc4c(c3)CCCN4C(C)=O)c2O)cc1F [Example 101, N-(3′-(1-Acetyl-1,2,3,4-tetrahydroquinolin-6-yl)-3-fluoro-2′-hydroxy-[1,1′-biphenyl]-4-yl)acetamide]	> 100 nM
CC(=O)Nc1ccc(-c2cccc(-c3ccc4c(c3)CCN4C(C)=O)c2O)cc1F [Example 47, N-(3′-(1-Acetylindolin-5-yl)-3-fluoro-2′-hydroxy-[1,1′-biphenyl]-4-yl)acetamide]	> 100 nM
CC(=O)Nc1c(F)cc(-c2cccc(-c3cc(N4CCNCC4)no3)c2O)cc1OC1CCC1 [Example 100, N-(3-Cyclobutoxy-5-fluoro-2′-hydroxy-3′-(3-(piperazin-1-yl)isoxazol-5-yl)-[1,1′-biphenyl]-4-yl)acetamide]	1 to 10 nM
CCNC(=O)c1cccc(-c2cccc(-c3ccc(NC(C)=O)c(F)c3)c2O)c1 [Example 93, 4″-Acetamido-N-ethyl-3″-fluoro-2′-hydroxy-[1,1′:3′,1″-terphenyl]-3-carboxamide]	> 100 nM
CC(=O)Nc1ccc(-c2cccc(-c3cccc(N4CCNC[C@H]4C)c3)c2O)cc1F [Example 169, (R)-N-(3-fluoro-2′-hydroxy-3″-(2-methylpiperazin-1-yl)-[1,1′:3′,1″-terphenyl]-4-yl)acetamide]	1 to 10 nM
CC(=O)Nc1ccc(-c2cccc(-c3ccc(OC4CCCC4)cc3)c2O)cc1F [Example 118, N-(4″-(Cyclopentyloxy)-3-fluoro-2′-hydroxy-[1,1′:3′,1″-terphenyl]-4-yl)acetamide]	> 100 nM
CC(=O)Nc1ccc(-c2cccc(-c3cccc(OC4CCC4)c3)c2O)cc1F [Example 114, N-(3″-Cyclobutoxy-3-fluoro-2′-hydroxy-[1,1′:3′,1″-terphenyl]-4-yl)acetamide]	> 100 nM
CCNC(=O)c1ccc(-c2cccc(-c3ccc(NC(C)=O)c(F)c3)c2O)cc1 [Example 92, 4″-Acetamido-N-ethyl-3″-fluoro-2′-hydroxy-[1,1′:3′,1″-terphenyl]-4-carboxamide]	> 100 nM
CN1CCN(c2ccc(-c3cccc(-c4cc(N5CCNCC5)no4)c3O)cc2)C1=O [Example 65, 1-(2′-Hydroxy-3′-(3-(piperazin-1-yl)isoxazol-5-yl)-[1,1′-biphenyl]-4-yl)-3-methylimidazolidin-2-one 2,2,2-trifluoroacetate]	10 to 100 nM
CCOc1cc(-c2cccc(-c3cc(N4CCNCC4)no3)c2O)ccc1NC(C)=O [Example 19, N-(3-Ethoxy-2′-hydroxy-3′-(3-(piperazin-1-yl)isoxazol-5-yl)-[1,1′-biphenyl]-4-yl)acetamide 2,2,2-trifluoroacetate]	> 100 nM
CC(=O)Nc1ccc(-c2cccc(-c3ccnc(N)c3)c2O)cc1F [Example 111, N-(3′-(2-Aminopyridin-4-yl)-3-fluoro-2′-hydroxy-[1,1′-biphenyl]-4-yl)acetamide]	10 to 100 nM

Reference: patent US20250179059A1 (The Regents of the University of California, priority 2021, published 2025)
